Experimental data taken from PMC7689250, “Synthetic Peptide Libraries Designed From a Minimal Alpha-Helical Domain of AS-48-Bacteriocin Homologs Exhibit Potent Antibacterial Activity” (Frontiers in Microbiology, 2020).
Like-named read-outs stand apart in the source and are kept apart here. Residues, ends and D or L forms follow the SMILES beside them.

Columns and labels:
E. coli (BL21) = format: cell-based, Escherichia coli
Method: (§1) Peptides were screened against Escherichia coli (BL21), Streptococcus pyogenes (M1T1 5448, hereby referred to as M1), Pseudomonas aeruginosa (PAO1), and Staphylococcus aureus (USA300). Overnight bacterial cultures were grown in optimal media for each species: Luria-Bertani (LB) broth for E. coli, P. aeruginosa, and S. aureus, and Todd-Hewitt (TH) broth for S. pyogenes. Cultures were pelleted and re-suspended in Mueller-Hinton (MH) broth for peptide screens or minimal inhibitory concentration (MIC) assays, with 1 × 10^6 CFU/mL bacteria added per well ([Wiegand et al., 2008]). MICs for each parent peptide were identified against each bacterial strain as previously described ([Fields et al., 2018]). Members of each peptide library were screened against each bacterial strain at half of the MIC of the corresponding parent peptide to identify library members with increased antimicrobial activity relative to the parent peptide. […] Minimal bactericidal concentrations (MBCs) were determined following the respective MIC assays by plating aliquots from wells corresponding to each peptide concentration from the 96-well plate used for the MIC on species-appropriate agar. Plates were incubated at 37°C overnight, and MBCs were identified as the lowest concentrations of peptide at which no colonies were obtained. A Synergy H1 Microplate Reader (BioTek, Winooski, VT, United States) was used to determine the MICs and identify peptides with greater antimicrobial activity than the corresponding parent peptide by measuring OD 600 of the bacterial cultures in 96-well microtiter plates.

S. pyogenes (M1) = format: cell-based, Streptococcus pyogenes; settings: for MBC: M1
Method: as §1

S. aureus (USA300) = format: cell-based, Staphylococcus aureus
Method: as §1

P. aeruginosa (PAO1) = format: cell-based, Pseudomonas aeruginosa; settings: for MBC: PAO1; for MIC: PAO1, 16 h
Method: as §1

sheep erythrocytes = format: cell-based; settings: red cells of sheep, 1 h
Method: To determine if peptide variants were hemolytic, fresh defibrinated whole sheep blood (Hardy Diagnostics) was washed three times in cold PBS, and washed blood was diluted 1:25 in PBS. Treatments were applied at a 1:10 ratio of sample:blood, where the sample was either 10% Triton, PBS, or a specific peptide concentration corresponding to concentrations used in the MIC assays. Treatments were incubated with the blood for 1 h at 37°C. Following incubation, samples were centrifuged at […] for 10 min at 4°C, and the absorbance of the supernatants at 450 nm was measured on the Synergy H1 Microplate Reader to measure the release of hemoglobin. Percent hemolysis was quantified by normalizing to the negative and positive controls.

SMILES	MIC (E. coli (BL21); BL21, 16 h)	MIC (S. pyogenes (M1); S. pyogenes M1)	MIC (S. aureus (USA300); USA300, 16 h)	MIC (P. aeruginosa (PAO1))	MIC (E. coli (BL21); E. coli BL21)	MIC (S. pyogenes (M1); S. pyogenes M1, running text b43, unit printed nm)	MIC (S. aureus (USA300); USA300)	MIC (S. pyogenes (M1); M1, 16 h)	MBC (E. coli (BL21); BL21)	MBC (S. pyogenes (M1))	MBC (S. aureus (USA300); USA300)	MBC (P. aeruginosa (PAO1))	Percent Hemolysis (sheep erythrocytes)	MBC (E. coli (BL21); E. coli BL21)
CC[C@H](C)[C@H](NC(=O)[C@H](CCCCN)NC(=O)[C@H](C)NC(=O)[C@H](CCCNC(=N)N)NC(=O)[C@H](CCCCN)NC(=O)CNC(=O)[C@H](CCCCN)NC(=O)[C@H](CCC(=O)O)NC(=O)[C@H](CCC(N)=O)NC(=O)[C@@H](NC(=O)[C@@H](NC(=O)[C@H](CCCCN)NC(=O)[C@H](CCCCN)NC(=O)[C@H](CC(C)C)NC(=O)[C@H](Cc1ccccc1)NC(=O)[C@H](CCC(N)=O)NC(=O)[C@H](CCCNC(=N)N)NC(=O)[C@@H](NC(=O)[C@@H](NC(=O)[C@H](CCC(=O)O)NC(=O)[C@H](CCCCN)NC(=O)CNC(=O)[C@H](C)N)[C@@H](C)O)[C@@H](C)CC)[C@@H](C)O)[C@@H](C)CC)C(=O)N[C@@H](Cc1c[nH]c2ccccc12)C(=O)N[C@@H](Cc1c[nH]c2ccccc12)C(=O)O [Syn-larvacin-69] (H-AGKETIRQFLKKTIQEKGKRAKIWW-OH; N-terminus and C-terminus assumed)	2 µM	0.125 µM	16 µM	32 µM	–	–	–	–	16 µM	0.5 µM	16 µM	32 µM	12.5%	–
CC[C@H](C)[C@H](NC(=O)[C@H](CCCCN)NC(=O)[C@H](CCCCN)NC(=O)CNC(=O)[C@H](CCC(=O)O)NC(=O)[C@H](CCC(N)=O)NC(=O)[C@@H](NC(=O)[C@@H](NC(=O)[C@H](CCCCN)NC(=O)[C@H](CCCCN)NC(=O)[C@H](CC(C)C)NC(=O)[C@H](CCCNC(=N)N)NC(=O)[C@H](CCC(N)=O)NC(=O)[C@H](Cc1ccccc1)NC(=O)[C@@H](NC(=O)[C@H](CCCCN)NC(=O)[C@H](CCC(=O)O)NC(=O)[C@@H](NC(=O)CNC(=O)[C@H](C)N)[C@@H](C)O)[C@@H](C)CC)[C@@H](C)O)[C@@H](C)CC)C(=O)N[C@@H](C)C(=O)N[C@@H](CCCCN)C(=O)N[C@@H](CCCNC(=N)N)C(=O)N[C@@H](Cc1c[nH]c2ccccc12)C(=O)N[C@@H](Cc1c[nH]c2ccccc12)C(=O)O [Syn-larvacin-71] (H-AGTEKIFQRLKKTIQEGKKIAKRWW-OH; N-terminus and C-terminus assumed)	–	0.125 µM	<0.25 µM	16 µM	0.25 µM	0.125 µM	0.25 µM	–	–	0.125 µM	<0.25 µM	32 µM	20.6%	0.25 µM
CC[C@H](C)[C@H](NC(=O)[C@H](CCCCN)NC(=O)[C@H](CCCCN)NC(=O)CNC(=O)[C@H](CCC(=O)O)NC(=O)[C@H](CC(N)=O)NC(=O)[C@@H](NC(=O)[C@@H](NC(=O)[C@H](CCCCN)NC(=O)[C@H](CCCCN)NC(=O)[C@H](CC(C)C)NC(=O)[C@H](CCCNC(=N)N)NC(=O)[C@H](CC(N)=O)NC(=O)[C@H](Cc1ccccc1)NC(=O)[C@@H](NC(=O)[C@H](CCCCN)NC(=O)[C@H](CCC(=O)O)NC(=O)[C@@H](NC(=O)CNC(=O)[C@H](C)N)[C@@H](C)O)[C@@H](C)CC)[C@@H](C)O)[C@@H](C)CC)C(=O)N[C@@H](C)C(=O)N[C@@H](CCCCN)C(=O)N[C@@H](CCCNC(=N)N)C(=O)N[C@@H](Cc1c[nH]c2ccccc12)C(=O)N[C@@H](Cc1c[nH]c2ccccc12)C(=O)O [Syn-larvacin-72] (H-AGTEKIFNRLKKTINEGKKIAKRWW-OH; N-terminus and C-terminus assumed)	0.25 µM	0.125 µM	>128 µM	32 µM	–	–	–	–	0.25 µM	2 µM	>128 µM	64 µM	26.3%	–
CC[C@H](C)[C@H](NC(=O)[C@H](CCCCN)NC(=O)[C@H](C)NC(=O)[C@H](CCCNC(=N)N)NC(=O)[C@H](CCCCN)NC(=O)CNC(=O)[C@H](CCCCN)NC(=O)[C@H](CCC(=O)O)NC(=O)[C@H](CCC(N)=O)NC(=O)[C@@H](NC(=O)[C@H](CCCCN)NC(=O)[C@H](CCCCN)NC(=O)[C@H](CCCCN)NC(=O)[C@H](CC(C)C)NC(=O)[C@H](CCCNC(=N)N)NC(=O)[C@H](CCC(N)=O)NC(=O)[C@H](Cc1ccccc1)NC(=O)[C@@H](NC(=O)[C@@H](NC(=O)[C@H](CCC(=O)O)NC(=O)[C@H](CCCCN)NC(=O)CNC(=O)[C@H](C)N)[C@@H](C)O)[C@@H](C)CC)[C@@H](C)CC)C(=O)N[C@@H](C)C(=O)N[C@@H](Cc1c[nH]c2ccccc12)C(=O)O [Syn-larvacin-91] (H-AGKETIFQRLKKKIQEKGKRAKIAW-OH; N-terminus and C-terminus assumed)	1 µM	–	2 µM	32 µM	–	–	–	0.5 µM	2 µM	0.5 µM	2 µM	64 µM	23.4%	–

Further lines, with some results ahead:

MIC (E. coli (BL21); BL21, 16 h)	MIC (S. pyogenes (M1); S. pyogenes M1)	MIC (S. aureus (USA300); USA300, 16 h)	MIC (P. aeruginosa (PAO1))	MIC (E. coli (BL21); E. coli BL21)	MIC (S. pyogenes (M1); S. pyogenes M1, running text b43, unit printed nm)	MIC (S. aureus (USA300); USA300)	MIC (S. pyogenes (M1); M1, 16 h)	SMILES	MBC (E. coli (BL21); BL21)	MBC (S. pyogenes (M1))	MBC (S. aureus (USA300); USA300)	MBC (P. aeruginosa (PAO1))	Percent Hemolysis (sheep erythrocytes)	MBC (E. coli (BL21); E. coli BL21)
2 µM	–	2 µM	64 µM	–	–	–	1 µM	CC[C@H](C)[C@H](NC(=O)[C@H](CCCCN)NC(=O)[C@H](C)NC(=O)[C@H](CCCNC(=N)N)NC(=O)[C@H](CCCCN)NC(=O)[C@H](CCCCN)NC(=O)CNC(=O)[C@H](CCC(=O)O)NC(=O)[C@H](CCC(N)=O)NC(=O)[C@@H](NC(=O)[C@H](CCCCN)NC(=O)[C@H](CCCCN)NC(=O)[C@H](CCCCN)NC(=O)[C@H](CC(C)C)NC(=O)[C@H](Cc1ccccc1)NC(=O)[C@H](CCC(N)=O)NC(=O)[C@H](CCCNC(=N)N)NC(=O)[C@@H](NC(=O)[C@@H](NC(=O)[C@H](CCC(=O)O)NC(=O)[C@H](CCCCN)NC(=O)CNC(=O)[C@H](C)N)[C@@H](C)O)[C@@H](C)CC)[C@@H](C)CC)C(=O)N[C@@H](C)C(=O)N[C@@H](Cc1c[nH]c2ccccc12)C(=O)O [Syn-larvacin-92] (H-AGKETIRQFLKKKIQEGKKRAKIAW-OH; N-terminus and C-terminus assumed)	2 µM	1 µM	8 µM	128 µM	29.9%	–
2 µM	0.5 µM	>128 µM	8 µM	–	–	–	–	CC[C@H](C)[C@H](NC(=O)[C@H](CCCNC(=N)N)NC(=O)[C@H](CCC(N)=O)NC(=O)[C@@H](NC(=O)CNC(=O)[C@@H](N)Cc1c[nH]c2ccccc12)[C@@H](C)O)C(=O)N[C@@H](CCCCN)C(=O)N[C@@H](C)C(=O)N[C@@H](Cc1ccc(O)cc1)C(=O)N[C@@H](CC(C)C)C(=O)N[C@@H](CCCNC(=N)N)C(=O)N[C@@H](CCCNC(=N)N)C(=O)N[C@@H](CCC(=O)O)C(=O)N[C@H](C(=O)N[C@@H](CCCNC(=N)N)C(=O)N[C@@H](CCCCN)C(=O)N[C@@H](CCCNC(=N)N)C(=O)NCC(=O)N[C@@H](CCCNC(=N)N)C(=O)N[C@@H](CCCCN)C(=O)N[C@@H](C)C(=O)N[C@H](C(=O)N[C@H](C(=O)N[C@@H](C)C(=O)N[C@@H](Cc1c[nH]c2ccccc12)C(=O)O)[C@@H](C)CC)C(C)C)[C@@H](C)CC [Syn-sordellicin-11] (H-WGTQRIKAYLRREIRKRGRKAVIAW-OH; N-terminus and C-terminus assumed)	2 µM	0.5 µM	>128 µM	8 µM	21.3%	–
1 µM	–	32 µM	4 µM	–	–	–	4 µM	CC[C@H](C)[C@H](NC(=O)[C@H](CCC(=O)O)NC(=O)[C@H](CCCNC(=N)N)NC(=O)[C@H](CCCNC(=N)N)NC(=O)[C@H](CC(C)C)NC(=O)[C@H](Cc1ccc(O)cc1)NC(=O)[C@H](CCCCN)NC(=O)[C@H](C)NC(=O)[C@@H](NC(=O)[C@@H](NC(=O)[C@H](CCC(N)=O)NC(=O)[C@H](CCCNC(=N)N)NC(=O)[C@H](Cc1c[nH]c2ccccc12)NC(=O)[C@H](C)N)[C@@H](C)O)[C@@H](C)CC)C(=O)N[C@@H](CCCNC(=N)N)C(=O)N[C@@H](CCCCN)C(=O)N[C@@H](CCCNC(=N)N)C(=O)NCC(=O)N[C@@H](CCCNC(=N)N)C(=O)N[C@@H](CCCCN)C(=O)N[C@@H](C)C(=O)N[C@H](C(=O)N[C@H](C(=O)N[C@@H](C)C(=O)N[C@@H](Cc1c[nH]c2ccccc12)C(=O)O)[C@@H](C)CC)C(C)C [Syn-sordellicin-18] (H-AWRQTIAKYLRREIRKRGRKAVIAW-OH; N-terminus and C-terminus assumed)	1 µM	4 µM	32 µM	8 µM	14.1%	–
